Reference: patent EP1154795B1, “MEANS FOR TREATING AND DIAGNOSING RESTLESS LEGS SYNDROME” (priority 1998, dated 2000)

Test system: patients with light to moderate RLS/PMLS
Test: Double-blind, placebo controlled parallel group study with donepezil
Assay type: in vivo
Description: Double-blind, placebo controlled parallel group study with donepezil. In a double-blind, placebo controlled parallel study with the CEI donepezil we studied 9 patients with light to moderate RLS/PMLS (PLM index, PLMI = 3-17).

[1] = 5mg once daily, evening dose for 21 days

## COc1cc2c(cc1OC)C(=O)C(CC1CCN(Cc3ccccc3)CC1)C2 (stereo not drawn) [Donepezil, donepezil]
[1]
  change in total sleep time after treatment: no significant change
  increase of the proportion of rapid eye movement sleep after treatment: approximately 30%
  side effects during the study period: No side effects were reported
5mg once daily, evening dose for 21 days, from 8.3 to 5.3
  mean reduction of PLMI: approximately 36%
5 of 9 patients, minor change in 3 patients, one patient increased PLMI, 5mg once daily for 21 days
  Marked reduction of PLMI (reduction in 5 patients): 57-100%
9 patients (PLMI = 3-17), 5mg once daily, evening dose for 21 days, mean PLMI reduced from 8.3
  mean PLMI after treatment: 5.3
